The melting point is the temperature, or range, at which the solid turns liquid. As for `C[C@H](N)C(=O)Nc1n[nH]c(-c2ccc(F)cc2)c1-c1ccncc1.Cl`, the melting point lay within 210.2 to 211.5 °C.
`CC(C)[C@H](N)C(=O)Nc1n[nH]c(-c2ccc(F)cc2)c1-c1ccncc1.Cl` displayed a melting point of 205.3 to 206.4 °C.
Consider `O=C(Cc1ccccc1)Nc1n[nH]c(-c2ccc(F)cc2)c1-c1ccncc1` [Example 1, 5-(4-fluorophenyl)-3-phenylacetylamino-4-(4-pyridyl)pyrazole], for which the melting point lay in the range of 289.2 to 290.4 °C.
The molecule `O=C(CCc1ccccc1)Nc1n[nH]c(-c2ccc(F)cc2)c1-c1ccncc1` [Example 2, 5-(4-Fluorophenyl)-3-(3-phenylpropionylamino)-4-(4-pyridyl)pyrazole] had a melting point of 253.5 to 255.1 °C.
In turn, `COc1ccc(CC(=O)Nc2n[nH]c(-c3ccc(F)cc3)c2-c2ccncc2)cc1` [Example 3, 5-(4-Fluorophenyl)-3-(4-methoxyphenylacetylanino)-4-(4-pyridyl)pyrazole] came in with a melting point of 265.1 to 266.2 °C.
The figure for `CC(C(=O)Nc1n[nH]c(-c2ccc(F)cc2)c1-c1ccncc1)c1ccccc1` (centres unmarked) [Example 5, 5-(4-Fluorophenyl)-3-(2-phenylpropionylamino)-4-(4-pyridyl)pyrazole] is 240.6 to 241 °C; for `O=C(Cc1ccc(Cl)cc1)Nc1n[nH]c(-c2ccc(F)cc2)c1-c1ccncc1` [Example 6, 3-(4-Chlorophenylacetylamino)-5-(4-fluorophenyl)-4-(4-pyridyl)pyrazole] it is 273.2 to 277.3 °C.
As for `Cc1ccc(CC(=O)Nc2n[nH]c(-c3ccc(F)cc3)c2-c2ccncc2)cc1` [Example 7, 5-(4-Fluorophenyl)-3-(4-methylphenylacetylamino)-4-(4-pyridyl)pyrazole], the figure is 262.8 to 264.7 °C.
As for `O=C(Cc1ccc(C(F)(F)F)cc1)Nc1n[nH]c(-c2ccc(F)cc2)c1-c1ccncc1` [Example 8, 5-(4-Fluorophenyl)-4-(4-pyridyl)-3-(4-trifluoromethylphenylacetylamino)pyrazole], the figure is 282.1 to 288.4 °C.
With `O=C(Cc1ccccc1)Nc1n[nH]c(-c2ccccc2)c1-c1ccncc1` [Example 9, 3-Phenylacetylamino-5-phenyl-4-(4-pyridyl)pyrazole], the melting point is 257.3 to 264.1 °C.
As for `O=C(Cc1ccccc1)Nc1n[nH]c(-c2ccc(F)cc2)c1-c1ccnc2ccccc12` [Example 10, 5-(4-Fluorophenyl)-4-(4-quinolyl)-3-phenylacetylaminopyrazole], the figure is 273.4 to 275.3 °C; as for `O=C(Cc1cccs1)Nc1n[nH]c(-c2ccc(F)cc2)c1-c1ccncc1` [Example 11, 5-(4-Fluorophenyl)-4-(4-pyridyl)-3-(2-thienylacetylamino)pyrazole], 264.6 to 268.3 °C.
As for `O=C(Nc1n[nH]c(-c2ccc(F)cc2)c1-c1ccncc1)c1ccccc1` [Example 13, 3-Benzoylamino-5-(4-fluorophenyl)-4-(4-pyridyl)pyrazole], the figure is 270.5 to 276.1 °C; as for `O=C(CO)Nc1n[nH]c(-c2ccc(F)cc2)c1-c1ccncc1` [Example 14, 5-(4-Fluorophenyl)-3-hydroxyacetylamino-4-(4-pyridyl)pyrazole], 264 to 266 °C.
The figure for `COCC(=O)Nc1n[nH]c(-c2ccc(F)cc2)c1-c1ccncc1` [Example 15, 5-(4-Fluorophenyl)-3-methoxyacetylamino-4-(4-pyridyl)pyrazole] is 246 to 248 °C; for `CCC(=O)Nc1n[nH]c(-c2ccc(F)cc2)c1-c1ccncc1` [Example 17, 5-(4-Fluorophenyl)-3-propionylamino-4-(4-pyridyl)pyrazole] it is 272 to 275 °C; for `CC(C)C(=O)Nc1n[nH]c(-c2ccc(F)cc2)c1-c1ccncc1` [Example 18, 5-(4-Fluorophenyl)-3-isobutyrylamino-4-(4-pyridyl)pyrazole] it is 291.1 to 294 °C.
Regarding `CC(C)CC(=O)Nc1n[nH]c(-c2ccc(F)cc2)c1-c1ccncc1` [Example 19, 5-(4-Fluorophenyl)-3-isovalerylamino-4-(4-pyridyl)pyrazole], the melting point lay within 291.1 to 294 °C.
The molecule `CCCCC(=O)Nc1n[nH]c(-c2ccc(F)cc2)c1-c1ccncc1` [Example 20, 5-(4-Fluorophenyl)-4-(4-pyridyl)-3-valerylaminopyrazole] displayed a melting point of 273.7 to 275.8 °C.
As for `CC(C)(C)C(=O)Nc1n[nH]c(-c2ccc(F)cc2)c1-c1ccncc1` [Example 21, 5-(4-Fluorophenyl)-4-(4-pyridyl)-3-pivaloylaminopyrazole], the figure is 217.9 to 220.6 °C; as for `O=C(Nc1n[nH]c(-c2ccc(F)cc2)c1-c1ccncc1)C(F)(F)F` [Example 22, 5-(4-fluorophenyl)-4-(4-pyridyl)-3-trifluoroacetylaminopyrazole], 260.1 to 265.2 °C.
The figure for `O=C(CC1CCCCC1)Nc1n[nH]c(-c2ccc(F)cc2)c1-c1ccncc1` [Example 23, 3-cyclohexylacetylamino-5-(4-fluorophenyl)-4-(4-pyridyl)pyrazole] is 296.3 to 299.9 °C.
As for `O=C(Cc1ccccc1Cl)Nc1n[nH]c(-c2ccc(F)cc2)c1-c1ccncc1` [Example 24, 3-(2-chlorophenylacetylamino)-5-(4-fluorophenyl)-4-(4-pyridyl)pyrazole], the figure is 238.8 to 240.1 °C; as for `O=C(Cc1cccc(Cl)c1)Nc1n[nH]c(-c2ccc(F)cc2)c1-c1ccncc1` [Example 25, 3-(3-Chlorophenylacetylamino)-5-(4-fluorophenyl)-4-(4-pyridyl)pyrazole], 249.7 to 250.8 °C; as for `O=C(Cc1ccc(F)cc1)Nc1n[nH]c(-c2ccc(F)cc2)c1-c1ccncc1` [Example 26, 5-(4-Fluorophenyl)-3-(4-fluorophenylacetylamino)-4-(4-pyridyl)pyrazole], 259.4 to 261.2 °C.
`O=C(Cc1ccc([N+](=O)[O-])cc1)Nc1n[nH]c(-c2ccc(F)cc2)c1-c1ccncc1` [Example 27, 5-(4-Fluorophenyl)-3-(4-nitrophenylacetylamino)-4-(4-pyridyl)pyrazole] came in with a melting point of 299.3 to 302.3 °C.
As for `O=C(Cc1ccsc1)Nc1n[nH]c(-c2ccc(F)cc2)c1-c1ccncc1` [Example 28, 5-(4-Fluorophenyl)-4-(4-pyridyl)-3-(3-thienylacetylamino)pyrazole], the figure is 279.6 to 282.9 °C (dec.).
The figure for `O=C(Cc1ccncc1)Nc1n[nH]c(-c2ccc(F)cc2)c1-c1ccncc1` [Example 29, 5-(4-Fluorophenyl)-4-(4-pyridyl)-3-(4-pyridylacetylamino)pyrazole] is 248.3 to 251.8 °C (dec.).
The figure for `O=C(Cc1c(F)c(F)c(F)c(F)c1F)Nc1n[nH]c(-c2ccc(F)cc2)c1-c1ccncc1` [Example 31, 5-(4-Fluorophenyl)-3-(2,3,4,5,6-pentafluorophenylacetylamino)-4-(4-pyridyl)pyrazole] is at least 325 °C; for `O=C(Nc1n[nH]c(-c2ccc(F)cc2)c1-c1ccncc1)C(c1ccccc1)c1ccccc1` [Example 32, 3-Diphenylacetylamino-5-(4-fluorophenyl)-4-(4-pyridyl)pyrazole] it is 266.5 to 269.2 °C; for `CC(C)(C(=O)Nc1n[nH]c(-c2ccc(F)cc2)c1-c1ccncc1)c1ccccc1` [Example 33, 3-(α,α-Dimethylphenylacetylamino)-5-(4-fluorophenyl)-4-(4-pyridyl)pyrazole] it is 239.1 to 241.5 °C.
In turn, `Cn1nc(-c2ccc(F)cc2)c(-c2ccncc2)c1NC(=O)Cc1cc(F)ccc1F` [Example 35, 5-(2,5-difluorophenylacetylamino)-3-(4-fluorophenyl)-1-methyl-4-(4-pyridyl)pyrazole] returned a melting point of 207 to 208 °C.
The figure for `Cn1nc(-c2ccc(F)cc2)c(-c2ccncc2)c1NC(=O)Cc1c(F)cccc1Cl` [Example 36, 5-(2-Chloro-6-fluorophenylacetylamino)-3-(4-fluorophenyl)-1-methyl-4-(4-pyridyl)pyrazole] is 216.9 to 224.6 °C; for `Cn1nc(-c2ccc(F)cc2)c(-c2ccncc2)c1NC(=O)Cc1ccc(Cl)c(Cl)c1` [Example 37, 5-(3,4-Dichlorophenylacetylamino)-3-(4-fluorophenyl)-1-methyl-4-(4-pyridyl)pyrazole] it is 205.1 to 207 °C; for `Cn1nc(-c2ccc(F)cc2)c(-c2ccncc2)c1NC(=O)Cc1c(Cl)cccc1Cl` [Example 38, 5-(2,6-Dichlorophenylacetylamino)-3-(4-fluorophenyl)-1-methyl-4-(4-pyridyl)pyrazole] it is 252.5 to 256.7 °C.
Regarding `Cn1nc(-c2ccc(F)cc2)c(-c2ccncc2)c1NC(=O)Cc1ccc(F)cc1Cl` [Example 39, 5-(2-Chloro-4-fluorophenylacetylamino)-3-(4-fluorophenyl)-1-methyl-4-(4-pyridyl)pyrazole], the melting point fell in the range of 229 to 232.7 °C.
As for `Cn1nc(-c2ccc(F)cc2)c(-c2ccncc2)c1NC(=O)Cc1ccc(F)cc1F` [Example 40, 5-(2,4-Difluorophenylacetylamino)-3-(4-fluorophenyl)-1-methyl-4-(4-pyridyl)pyrazole], the figure is 225.5 to 228.3 °C; as for `Cn1nc(-c2ccc(F)cc2)c(-c2ccncc2)c1NC(=O)Cc1ccc(Cl)cc1Cl` [Example 41, 5-(2,4-Dichlorophenylacetylamino)-3-(4-fluorophenyl)-1-methyl-4-(4-pyridyl)pyrazole], 224.3 to 225.4 °C; as for `COc1ccc(CC(=O)Nc2c(-c3ccncc3)c(-c3ccc(F)cc3)nn2C)cc1OC` [Example 42, 5-(3,4-Dimethoxyphenylacetylamino)-3-(4-fluorophenyl)-1-methyl-4-(4-pyridyl)pyrazole], 128.1 to 129.6 °C.
The figure for `Cn1nc(-c2ccc(F)cc2)c(-c2ccncc2)c1NC(=O)Cc1ccc2c(c1)OCO2` [Example 43, 3-(4-Fluorophenyl)-1-methyl-5-(3,4-methylenedioxyphenylacetylamino)-4-(4-pyridyl)pyrazole] is 113.6 to 116.5 °C; for `COc1ccc(CC(=O)Nc2c(-c3ccncc3)c(-c3ccc(F)cc3)nn2C)cc1OC` [Example 44, 5-(3,4-Dimethoxyphenylacetylamino)-3-(4-fluorophenyl)-1-methyl-4-(4-pyridyl)pyrazole] it is 174.4 to 180.3 °C.
